Where “and” joins values, the source holds several entries; their conditions need not be identical. Equal entries are not always repeated.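 Assay format: 96-well plates, 48-hour exposure. GI50: concentration for 50% inhibition of growth. TGI: total growth inhibition.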
What was measured:
Assay in all cases: NCI anticancer screen, dose series, 48 h
MCF7 breast = tested on: MCF7 breast
UO-31 renal = tested on: UO-31 renal
NCI-H460 lung = tested on: NCI-H460 lung
MDA-MB-435 = tested on: MDA-MB-435
SF-295 CNS = tested on: SF-295 CNS
OVCAR-4 ovarian = tested on: OVCAR-4 ovarian
U251 CNS = tested on: U251 CNS
SNB-75 CNS = tested on: SNB-75 CNS
NCI/ADR-RES ovarian = tested on: NCI/ADR-RES ovarian
TK-10 renal = tested on: TK-10 renal

## O=C1CC/C(=C\COc2ccc3ccc(=O)oc3c2)O1
MCF7 breast
  GI50: 3.61 µM
  TGI: 33.8 µM
UO-31 renal
  GI50: 6.41 µM
  TGI: 21.4 µM
NCI-H460 lung
  GI50: 16.8 µM
  TGI: > 100 µM
MDA-MB-435
  GI50: 3.41 µM
  TGI: 17.5 µM
SF-295 CNS
  GI50: 43.5 µM
  TGI: > 100 µM
OVCAR-4 ovarian
  GI50: 4.78 µM
  TGI: 23.7 µM
U251 CNS
  GI50: 10.3 µM
  TGI: 22.8 µM
SNB-75 CNS
  GI50: 12.7 µM
  TGI: 30.2 µM
NCI/ADR-RES ovarian
  GI50: 14.9 µM
  TGI: 43 µM
TK-10 renal
  GI50: 2.83 µM
  TGI: 17.7 µM

## O=C(/C=C\c1ccc2ccccc2n1)c1cc(Cl)ccc1O
MCF7 breast
  GI50: 6.48 µM
  TGI: > 100 µM
UO-31 renal
  GI50: 4.33 µM
  TGI: 17.8 µM
NCI-H460 lung
  GI50: 16 µM
  TGI: 42.6 µM
MDA-MB-435
  GI50: 3.66 µM
  TGI: 21.7 µM
SF-295 CNS
  GI50: 10.3 µM
  TGI: 44.2 µM
OVCAR-4 ovarian
  GI50: 5.25 µM
  TGI: 24.6 µM
U251 CNS
  GI50: 2.31 µM
  TGI: 5.2 µM
SNB-75 CNS
  GI50: 6.58 µM
  TGI: 21 µM
NCI/ADR-RES ovarian
  GI50: 2.6 µM
  TGI: 8.04 µM
TK-10 renal
  GI50: 7.88 µM
  TGI: 85.3 µM

## C[C@@H]1COC(Nc2ccc3ncnc(Nc4ccc(OCc5nccs5)c(Cl)c4)c3c2)=N1
MCF7 breast
  GI50: 4.97 µM and 5.73 µM
  TGI: > 10 µM and 24 µM
UO-31 renal
  GI50: 0.821 µM and 1.29 µM
  TGI: > 10 µM and 13.5 µM
NCI-H460 lung
  GI50: 8.17 µM and 8.76 µM
  TGI: > 10 µM and 26.5 µM
MDA-MB-435
  GI50: 6.2 µM and 6.24 µM
  TGI: > 10 µM and 23.1 µM
SF-295 CNS
  GI50: 4.9 µM and 4.54 µM
  TGI: > 10 µM and 18.6 µM
OVCAR-4 ovarian
  GI50: 5.72 µM and 3.79 µM
  TGI: > 10 µM and 17.3 µM
U251 CNS
  GI50: 9.24 µM and 8.55 µM
  TGI: > 10 µM and 26.6 µM
SNB-75 CNS
  GI50: 8.88 µM and 6.83 µM
  TGI: > 10 µM and 21.4 µM
NCI/ADR-RES ovarian
  GI50: 2.6 µM and 2.64 µM
  TGI: > 10 µM and 12 µM
TK-10 renal
  GI50: 0.235 µM and 0.259 µM
  TGI: > 10 µM and 14.8 µM

## NC(=O)NCCSC1CCCCC1O (configuration not stated)
MCF7 breast
  TGI: > 100 µM
UO-31 renal
  TGI: > 100 µM
NCI-H460 lung
  TGI: > 100 µM
MDA-MB-435
  TGI: > 100 µM
SF-295 CNS
  TGI: > 100 µM
OVCAR-4 ovarian
  TGI: > 100 µM
U251 CNS
  TGI: > 100 µM
SNB-75 CNS
  TGI: > 100 µM
NCI/ADR-RES ovarian
  TGI: > 100 µM
TK-10 renal
  TGI: > 100 µM

## CCCCCCN1CCN(Cc2ccc(N(CC)CC)cc2)C(=O)C1=O
MCF7 breast
  GI50: 0.58 µM
  TGI: 62.2 µM
UO-31 renal
  GI50: 5.22 µM
  TGI: > 100 µM
NCI-H460 lung
  GI50: 3.35 µM
  TGI: 17.3 µM
MDA-MB-435
  GI50: 0.448 µM
  TGI: 2.38 µM
SF-295 CNS
  GI50: 3.02 µM
  TGI: > 100 µM
OVCAR-4 ovarian
  GI50: 6.73 µM
  TGI: 79.6 µM
U251 CNS
  GI50: 3.99 µM
  TGI: 62.3 µM
SNB-75 CNS
  GI50: 1.95 µM
  TGI: 13.1 µM
NCI/ADR-RES ovarian
  GI50: 2.72 µM
TK-10 renal
  GI50: 10.3 µM
  TGI: 77.5 µM

## COc1ccc2c(c1)[C@@]1(C)CCC3c4ccc(O)cc4CCC3C1C2 (some centres not stated)
MCF7 breast
  GI50: 15.1 µM
  TGI: 30.8 µM
UO-31 renal
  GI50: 12.8 µM
  TGI: 30.9 µM
NCI-H460 lung
  GI50: 9.02 µM
  TGI: 23.2 µM
MDA-MB-435
  GI50: 15 µM
  TGI: 31 µM
SF-295 CNS
  GI50: 17.3 µM
  TGI: 33.8 µM
OVCAR-4 ovarian
  GI50: 13.7 µM
  TGI: 28.4 µM
U251 CNS
  GI50: 15.6 µM
  TGI: 29.9 µM
SNB-75 CNS
  GI50: 16.6 µM
  TGI: 30.9 µM
NCI/ADR-RES ovarian
  GI50: 14.4 µM
  TGI: 29.3 µM
TK-10 renal
  GI50: 14 µM
  TGI: 29 µM

## CO/C(=N\N=C\c1cccc(C(F)(F)F)c1)c1ccncc1
MCF7 breast
  GI50: 7.33 µM
  TGI: > 100 µM
UO-31 renal
  GI50: 6.09 µM
  TGI: 40.8 µM
NCI-H460 lung
  TGI: 48.8 µM
MDA-MB-435
  GI50: 3.33 µM
  TGI: 6.17 µM and 25.5 µM
SF-295 CNS
  GI50: 7.59 µM
OVCAR-4 ovarian
  TGI: > 100 µM
U251 CNS
  TGI: 80.2 µM
SNB-75 CNS
  TGI: 52.9 µM
NCI/ADR-RES ovarian
  GI50: 5.37 µM
TK-10 renal
  TGI: > 100 µM

## CN1C(=O)C(c2c[nH]c3ccccc23)=C(c2c(-c3c[nH]c4ccccc34)[nH]c3ccccc23)C1=O
MCF7 breast
  GI50: 2.27 µM
  TGI: 6.26 µM
UO-31 renal
  GI50: 15.2 µM
  TGI: > 100 µM
NCI-H460 lung
  GI50: 3.31 µM
  TGI: 15.8 µM
MDA-MB-435
  GI50: 1.71 µM
  TGI: 4.11 µM
SF-295 CNS
  GI50: 1.93 µM
  TGI: 4.27 µM
OVCAR-4 ovarian
  GI50: 15.5 µM
  TGI: > 100 µM
U251 CNS
  GI50: 3 µM
  TGI: 9.61 µM
SNB-75 CNS
  GI50: 1.74 µM
  TGI: 18 µM
NCI/ADR-RES ovarian
  GI50: 14.7 µM
  TGI: 42.8 µM
TK-10 renal
  GI50: 1.66 µM
  TGI: 4.85 µM

## COc1ccc(-c2csc3c2-n2cccc2C3=O)cc1O
MCF7 breast
  GI50: 0.0326 µM
  TGI: > 100 µM
UO-31 renal
  GI50: 0.401 µM
  TGI: 50.6 µM
NCI-H460 lung
  GI50: 0.0375 µM
  TGI: 13.1 µM
MDA-MB-435
  GI50: < 0.01 µM
  TGI: 0.0102 µM
SF-295 CNS
  GI50: 0.5 µM
  TGI: > 100 µM
OVCAR-4 ovarian
  GI50: 0.579 µM
  TGI: > 100 µM
U251 CNS
  GI50: 0.0332 µM
  TGI: > 47.4 µM
SNB-75 CNS
  GI50: 0.0281 µM
  TGI: > 100 µM
NCI/ADR-RES ovarian
  GI50: 0.0143 µM
  TGI: > 100 µM
TK-10 renal
  GI50: 17.6 µM
  TGI: 98.7 µM

## Cc1ccc2nc(N/N=C/c3cccc(C)n3)cc(C)c2c1
MCF7 breast
  TGI: 32.5 µM
UO-31 renal
  TGI: 41.3 µM
NCI-H460 lung
  TGI: 23.2 µM
MDA-MB-435
  TGI: 32 µM
SF-295 CNS
  TGI: 31.6 µM
OVCAR-4 ovarian
  TGI: 41.5 µM
U251 CNS
  TGI: 33.4 µM
SNB-75 CNS
  TGI: 36.6 µM
NCI/ADR-RES ovarian
  TGI: 48 µM
TK-10 renal
  TGI: 30.4 µM

## O=C(NC1(C(=O)O)CC1c1ccccc1)c1ccccc1 (configuration not stated)
MCF7 breast
  TGI: > 100 µM
UO-31 renal
  TGI: > 100 µM
NCI-H460 lung
  TGI: > 100 µM
MDA-MB-435
  TGI: > 100 µM
SF-295 CNS
  TGI: > 100 µM
OVCAR-4 ovarian
  TGI: > 100 µM
U251 CNS
  TGI: > 100 µM
SNB-75 CNS
  TGI: > 100 µM
NCI/ADR-RES ovarian
  TGI: > 100 µM
TK-10 renal
  TGI: > 100 µM

## N=C(N)c1ccc(-c2ccc(-c3ccc(F)cc3)o2)o1
MCF7 breast
  GI50: 0.685 µM
  TGI: 2.38 µM
UO-31 renal
  GI50: 1.43 µM
  TGI: 2.78 µM
NCI-H460 lung
  GI50: 1.76 µM
  TGI: 3.36 µM
MDA-MB-435
  GI50: 0.347 µM
  TGI: 1.3 µM
SF-295 CNS
  GI50: 1.51 µM
  TGI: 3.05 µM
OVCAR-4 ovarian
  GI50: 1.62 µM
  TGI: 3.2 µM
U251 CNS
  GI50: 1.6 µM
  TGI: 3.08 µM
SNB-75 CNS
  GI50: 1.55 µM
  TGI: 3.49 µM
NCI/ADR-RES ovarian
  GI50: 1.67 µM
  TGI: 4.1 µM
TK-10 renal
  GI50: 1.55 µM
  TGI: 2.92 µM

## COc1cc(/C=C2\C(=O)Nc3ccccc32)cc(OC)c1OC
MCF7 breast
  GI50: 19.9 µM
  TGI: > 100 µM
UO-31 renal
  GI50: 30.4 µM
  TGI: > 100 µM
NCI-H460 lung
  GI50: 11.8 µM
  TGI: > 100 µM
MDA-MB-435
  GI50: 4.1 µM
  TGI: 45.1 µM
SF-295 CNS
  GI50: 28.3 µM
  TGI: > 100 µM
OVCAR-4 ovarian
  GI50: 22.1 µM
  TGI: > 100 µM
U251 CNS
  GI50: 10.9 µM
  TGI: 63.5 µM
SNB-75 CNS
  GI50: 15 µM
  TGI: 58.7 µM
NCI/ADR-RES ovarian
  GI50: 11.6 µM
  TGI: 45.6 µM
TK-10 renal
  GI50: 29.4 µM
  TGI: > 100 µM

## O=[N+]([O-])/C=C/c1ccc([N+](=O)[O-])cc1
MCF7 breast
  GI50: 1.84 µM
  TGI: 5.29 µM
UO-31 renal
  GI50: 1.83 µM
  TGI: 3.69 µM
NCI-H460 lung
  GI50: 4.57 µM
  TGI: 22.6 µM
MDA-MB-435
  GI50: 1.74 µM
  TGI: 3.99 µM
SF-295 CNS
  GI50: 6.87 µM
  TGI: 24 µM
OVCAR-4 ovarian
  GI50: 3.65 µM
  TGI: 22.3 µM
U251 CNS
  GI50: 1.78 µM
  TGI: 3.52 µM
SNB-75 CNS
  GI50: 1.87 µM
  TGI: 4.02 µM
NCI/ADR-RES ovarian
  GI50: 8.71 µM
  TGI: 73.8 µM
TK-10 renal
  GI50: 2.7 µM
  TGI: 6.19 µM

Source: PubChem BioAssay (NCI)
